This passage reports IC50 results from patent US20240262826A1, “WILD TYPE KIT INHIBITORS” (Blueprint Medicines Corporation, priority 2022, published 2024).

The target in the experiment is wild type c-kit (Homo sapiens (Human), UniProt P10721). The experiment in a line: PathScan phospho c-kit (Tyr719) sandwich ELISA in SCF-stimulated M-07e cells (pKIT assay). The note with it: ELISA assay (values not marked *). Type of experiment: cell-based. A digest of the protocol:
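Tyr719-phosphorylated c-kit was measured by colorimetric (TMB) sandwich ELISA in lysates of M-07e cells. Cells were starved 4 h without serum or GM-CSF, dosed 60 min at 37 °C with compound (8 points, duplicate, 0.25% DMSO), and stimulated 10 min with human SCF (500 ng/mL as added). IC50 values came from 4-parameter logistic regression.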
For orientation: ELISA stands for enzyme-linked immunosorbent assay.

wild type c-kit, sequence (P10721 26-976): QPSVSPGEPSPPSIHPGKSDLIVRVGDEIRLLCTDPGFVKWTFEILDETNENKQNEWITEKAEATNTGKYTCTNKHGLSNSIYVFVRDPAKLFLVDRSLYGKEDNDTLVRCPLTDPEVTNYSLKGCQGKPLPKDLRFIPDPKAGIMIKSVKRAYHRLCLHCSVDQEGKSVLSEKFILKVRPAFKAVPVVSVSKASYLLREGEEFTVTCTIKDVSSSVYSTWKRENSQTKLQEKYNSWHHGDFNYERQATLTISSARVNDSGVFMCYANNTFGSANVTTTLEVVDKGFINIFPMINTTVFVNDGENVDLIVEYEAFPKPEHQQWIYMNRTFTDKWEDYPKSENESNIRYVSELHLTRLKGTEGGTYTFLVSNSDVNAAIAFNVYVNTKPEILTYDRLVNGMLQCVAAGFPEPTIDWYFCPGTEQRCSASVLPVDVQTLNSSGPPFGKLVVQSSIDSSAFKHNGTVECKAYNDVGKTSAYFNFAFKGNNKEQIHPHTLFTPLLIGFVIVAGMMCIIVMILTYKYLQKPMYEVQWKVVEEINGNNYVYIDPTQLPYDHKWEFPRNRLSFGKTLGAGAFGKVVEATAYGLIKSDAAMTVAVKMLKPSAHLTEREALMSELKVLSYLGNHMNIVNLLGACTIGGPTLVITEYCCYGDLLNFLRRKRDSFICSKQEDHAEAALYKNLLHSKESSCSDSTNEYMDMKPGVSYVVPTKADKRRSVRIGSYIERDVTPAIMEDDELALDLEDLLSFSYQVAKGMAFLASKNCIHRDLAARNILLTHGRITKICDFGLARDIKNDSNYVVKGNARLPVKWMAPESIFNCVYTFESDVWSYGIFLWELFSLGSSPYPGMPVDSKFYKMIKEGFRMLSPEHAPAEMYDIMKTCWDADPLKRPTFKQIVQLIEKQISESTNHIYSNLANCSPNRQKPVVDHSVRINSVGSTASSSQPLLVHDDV

For `COC(=O)N1CC(n2nnc(-c3ccc(C)c(NC(=O)c4cnn5ccc(OCCO)cc45)c3)n2)C1` [Example 199, methyl 3-(5-(3-(5-(2-hydroxyethoxy)pyrazolo[1,5-a]pyridine-3-carboxamido)-4-methylphenyl)-2H-tetrazol-2-yl)azetidine-1-carboxylate], inhibition was half-maximal at 29.6 nM (IC50).
As to `Cc1ccc(-c2nnn(C3CN(S(=O)(=O)C4CCOC4)C3)n2)cc1NC(=O)c1cnn2ccccc12` (stereo not shown) [Example 175, N-(2-methyl-5-(2-(1-((tetrahydrofuran-3-yl)sulfonyl)azetidin-3-yl)-2H-tetrazol-5-yl)phenyl)pyrazolo[1,5-a]pyridine-3-carboxamide], inhibition was half-maximal at 77.8 nM (IC50). This IC50 lies about 2.6-fold higher than the previous one.
For the compound `Cc1nn(C(CO)CO)c(C)c1-c1ccn2ncc(C(=O)Nc3cc(-c4nnn(C5CC5)n4)ccc3Cl)c2c1` [Example 276, N-(2-chloro-5-(2-cyclopropyl-2H-tetrazol-5-yl)phenyl)-5-(1-(1,3-dihydroxypropan-2-yl)-3,5-dimethyl-1H-pyrazol-4-yl)pyrazolo[1,5-a]pyridine-3-carboxamide], the IC50 (in general, the midpoint of a concentration-inhibition curve) stood at 0.3 nM. Compared with the last compound, the IC50 is about 260-fold lower.
`Cc1ccc(-c2nnn([C@H]3C[C@H](C(F)(F)F)C3)n2)cc1NC(=O)c1cnn2ccc(NCCO)cc12` [Example 121, 5-((2-hydroxyethyl)amino)-N-(2-methyl-5-(2-((1r,3r)-3-(trifluoromethyl)cyclobutyl)-2H-tetrazol-5-yl)phenyl)pyrazolo[1,5-a]pyridine-3-carboxamide or 5-((2-hydroxyethyl)amino)-N-(2-methyl-5-(2-((1s,3s)-3-(trifluoromethyl)cyclobutyl)-2H-tetrazol-5-yl)phenyl)pyrazolo[1,5-a]pyridine-3-carboxamide] gave an IC50 of 11.9 nM.
Consider `Cc1nn(C[C@H](O)CO)c(C)c1-c1ccn2ncc(C(=O)Nc3cc(-c4nnn(C5CC5)n4)ccc3Cl)c2c1` [Example 275, (S)-N-(2-chloro-5-(2-cyclopropyl-2H-tetrazol-5-yl)phenyl)-5-(1-(2,3-dihydroxypropyl)-3,5-dimethyl-1H-pyrazol-4-yl)pyrazolo[1,5-a]pyridine-3-carboxamide], for which the IC50 worked out at 0.1 nM. This IC50 lies about 120-fold lower than the previous one.
For `CCn1nnc(-c2cc(NC(=O)c3cnn4ccc(-c5cn(C[C@H](O)COC)nc5C)cc34)c(Cl)cc2F)n1` [Example 282, (S)—N-(2-chloro-5-(2-ethyl-2H-tetrazol-5-yl)-4-fluorophenyl)-5-(1-(2-hydroxy-3-methoxypropyl)-3-methyl-1H-pyrazol-4-yl)pyrazolo[1,5-a]pyridine-3-carboxamide], the IC50 amounted to 0.2 nM.
The result for `CCn1nnc(-c2ccc(Cl)c(NC(=O)c3cnn4ccc(-c5c(C)nn(C[C@H](C)O)c5C)cc34)c2)n1` [Example 253, (S)-N-(2-chloro-5-(2-ethyl-2H-tetrazol-5-yl)phenyl)-5-(1-(2-hydroxypropyl)-3,5-dimethyl-1H-pyrazol-4-yl)pyrazolo[1,5-a]pyridine-3-carboxamide] reads 0.4 nM.
`COC(=O)N1CC(n2nnc(-c3cc(NC(=O)c4cnn5cc(N6CCOCC6)ccc45)c(C)cc3F)n2)C1` [Example 224, methyl 3-(5-(2-fluoro-4-methyl-5-(6-morpholinopyrazolo[1,5-a]pyridine-3-carboxamido)phenyl)-2H-tetrazol-2-yl)azetidine-1-carboxylate] returned an IC50 of 27 nM.
With `Cc1ccc(-c2nnn(C3CN(S(=O)(=O)C4CC4)C3)n2)cc1NC(=O)c1cnn2ccccc12` [Example 179, N-(5-(2-(1-(cyclopropylsulfonyl)azetidin-3-yl)-2H-tetrazol-5-yl)-2-methylphenyl)pyrazolo[1,5-a]pyridine-3-carboxamide], the IC50 worked out at 4.9 nM. Against the preceding compound, the IC50 is about 5.5-fold lower.
As to `COCCNc1ccn2ncc(C(=O)Nc3cc(-n4nnc(C5CN(C(=O)OC)C5)n4)ccc3C)c2c1` [Example 125, methyl 3-(2-(3-(5-((2-methoxyethyl)amino)pyrazolo[1,5-a]pyridine-3-carboxamido)-4-methylphenyl)-2H-tetrazol-5-yl)azetidine-1-carboxylate], the IC50 stood at 7.2 nM.
The result for `COCCNc1cc2c(C(=O)Nc3cc(-c4nnn(C5CN(C(=O)OC)C5)n4)ccc3C)cnn2cc1C` [Example 144, methyl 3-(5-(3-(5-((2-methoxyethyl)amino)-6-methylpyrazolo[1,5-a]pyridine-3-carboxamido)-4-methylphenyl)-2H-tetrazol-2-yl)azetidine-1-carboxylate] reads 23.4 nM; that for `COC[C@@H](O)Cn1ncc(-c2ccn3ncc(C(=O)Nc4cc(-c5nnn(C6CC6)n5)c(C)cc4Cl)c3c2)c1C` [Example 262, (S)-N-(2-chloro-5-(2-cyclopropyl-2H-tetrazol-5-yl)-4-methylphenyl)-5-(1-(2-hydroxy-3-methoxypropyl)-5-methyl-1H-pyrazol-4-yl)pyrazolo[1,5-a]pyridine-3-carboxamide], 1.1 nM; that for `COC(=O)N1CC(n2nnc(-c3ccc(C)c(NC(=O)c4cnn5ccc(NC[C@H](C)OC)cc45)c3)n2)C1` [Example 134, methyl (S)-3-(5-(3-(5-((2-methoxypropyl)amino)pyrazolo[1,5-a]pyridine-3-carboxamido)-4-methylphenyl)-2H-tetrazol-2-yl)azetidine-1-carboxylate], 32.4 nM.
The result for `Cc1ccc(-c2nnn(C3CN(CC(F)(F)F)C3)n2)cc1NC(=O)c1cnn2ccccc12` [Example 196, N-(2-methyl-5-(2-(1-(2,2,2-trifluoroethyl)azetidin-3-yl)-2H-tetrazol-5-yl)phenyl)pyrazolo[1,5-a]pyridine-3-carboxamide] reads 9.1 nM; that for `Cc1ccc(-n2nnc([C@H]3CC3(F)F)n2)cc1NC(=O)c1cnn2ccc(-c3cnn(CCO)c3)cc12` (single isomer, unassigned) [Example 211, (R)-N-(5-(5-(2,2-difluorocyclopropyl)-2H-tetrazol-2-yl)-2-methylphenyl)-5-(1-(2-hydroxyethyl)-1H-pyrazol-4-yl)pyrazolo[1,5-a]pyridine-3-carboxamide or (S)-N-(5-(5-(2,2-difluorocyclopropyl)-2H-tetrazol-2-yl)-2-methylphenyl)-5-(1-(2-hydroxyethyl)-1H-pyrazol-4-yl)pyrazolo[1,5-a]pyridine-3-carboxamide], 2.6 nM; that for `COCCNc1ccn2ncc(C(=O)Nc3cc(-c4nnn(C5CN(C(=O)OC)C5)n4)ccc3F)c2c1` [Example 115, methyl 3-(5-(4-fluoro-3-(5-((2-methoxyethyl)amino)pyrazolo[1,5-a]pyridine-3-carboxamido)phenyl)-2H-tetrazol-2-yl)azetidine-1-carboxylate], 12.4 nM.
For the compound `COC(=O)N1CC(n2nnc(-c3ccc(C)c(NC(=O)c4cnn5ccc(N6CCC[C@@H](O)C6)cc45)c3)n2)C1` [Example 71, methyl (R)-3-(5-(3-(5-(3-hydroxypiperidin-1-yl)pyrazolo[1,5-a]pyridine-3-carboxamido)-4-methylphenyl)-2H-tetrazol-2-yl)azetidine-1-carboxylate], the IC50 was 41.6 nM.
`CCn1nnc(-c2cc(NC(=O)c3cnn4ccc(-c5cn(CC(C)(C)O)nc5C)cc34)c(Cl)cc2F)n1` [Example 265, N-(2-chloro-5-(2-ethyl-2H-tetrazol-5-yl)-4-fluorophenyl)-5-(1-(2-hydroxy-2-methylpropyl)-3-methyl-1H-pyrazol-4-yl)pyrazolo[1,5-a]pyridine-3-carboxamide] yielded an IC50 of 0.8 nM.
As for `Cn1nnc(-c2ccc(F)c(NC(=O)c3cnn4ccc(-c5cnn(CC(C)(C)O)c5)cc34)c2)n1` [Example 213, N-(2-fluoro-5-(2-methyl-2H-tetrazol-5-yl)phenyl)-5-(1-(2-hydroxy-2-methylpropyl)-1H-pyrazol-4-yl)pyrazolo[1,5-a]pyridine-3-carboxamide], the IC50 worked out at 16 nM.
`COC(=O)N1CC(c2cnn(-c3ccc(C)c(NC(=O)c4cnn5ccc(N6CCN(C7COC7)CC6)cc45)c3)n2)C1` [Example 83, methyl 3-(2-(4-methyl-3-(5-(4-(oxetan-3-yl)piperazin-1-yl)pyrazolo[1,5-a]pyridine-3-carboxamido)phenyl)-2H-1,2,3-triazol-4-yl)azetidine-1-carboxylate]: the IC50 came out at 50.4 nM.
In the case of `COC(=O)N1CC(n2nnc(-c3ccc(C)c(NC(=O)c4cnn5ccc(N6CCO[C@H](CO)C6)cc45)c3)n2)C1` [Example 68, methyl (S)-3-(5-(3-(5-(2-(hydroxymethyl)morpholino)pyrazolo[1,5-a]pyridine-3-carboxamido)-4-methylphenyl)-2H-tetrazol-2-yl)azetidine-1-carboxylate] it was 61.3 nM; in that of `COC(=O)N1CC(n2nnc(-c3ccc(C)c(NC(=O)c4cnn5ccc(N6CCC(F)(F)CC6)cc45)c3)n2)C1` [Example 147, methyl 3-(5-(3-(5-(4,4-difluoropiperidin-1-yl)pyrazolo[1,5-a]pyridine-3-carboxamido)-4-methylphenyl)-2H-tetrazol-2-yl)azetidine-1-carboxylate], 31.6 nM; in that of `Cc1ccc(-c2nnn(CCOC(C)C)n2)cc1NC(=O)c1cnn2ccccc12` [Example 11, N-(5-(2-(2-isopropoxyethyl)-2H-tetrazol-5-yl)-2-methylphenyl)pyrazolo[1,5-a]pyridine-3-carboxamide], 2.5 nM.
`Cc1ccc(-c2nnn(CC3CC3)n2)cc1NC(=O)c1cnn2ccccc12` [Example 7, N-(5-(2-(cyclopropylmethyl)-2H-tetrazol-5-yl)-2-methylphenyl)pyrazolo[1,5-a]pyridine-3-carboxamide] gave an IC50 of 13.6 nM. Against the preceding compound, the IC50 is about 5.4-fold higher.
Consider `O=C(Nc1cc(-c2nnn(C3CC(F)(F)C3)n2)c(F)cc1Cl)c1cnn2ccc(N3CCOCC3)cc12` [Example 63, N-(2-chloro-5-(2-(3,3-difluorocyclobutyl)-2H-tetrazol-5-yl)-4-fluorophenyl)-5-morpholinopyrazolo[1,5-a]pyridine-3-carboxamide], for which the half-maximal inhibitory concentration (IC50) worked out at 10.5 nM. This IC50 and that of the compound before are within 1.5-fold of each other.
